Laboratory results from ChEMBL document CHEMBL3351528, “Targeting dopamine D3 and serotonin 5-HT1A and 5-HT2A receptors for developing effective antipsychotics: synthesis, biological characterization, and behavioral studies” (J Med Chem, 2014).
pKi: −log10 of the molar value. Active and inactive are the calls of the source. The calls are words filed in the database; no cut-off is given here.

Legend:
Mus musculus [1] = experiment: Toxicity in NMRI mouse assessed as induction of tremors at 10 mg/kg, sc dosed 30 mins before test; type: organism-based; design: dose 10 mg/kg, route subcutaneous; conditions: in vivo, 0.5 h
D(3) dopamine receptor [2] = molecular target: T1, D(3) dopamine receptor (Homo sapiens, UniProt P35462)
T1 sequence (P35462 whole entry): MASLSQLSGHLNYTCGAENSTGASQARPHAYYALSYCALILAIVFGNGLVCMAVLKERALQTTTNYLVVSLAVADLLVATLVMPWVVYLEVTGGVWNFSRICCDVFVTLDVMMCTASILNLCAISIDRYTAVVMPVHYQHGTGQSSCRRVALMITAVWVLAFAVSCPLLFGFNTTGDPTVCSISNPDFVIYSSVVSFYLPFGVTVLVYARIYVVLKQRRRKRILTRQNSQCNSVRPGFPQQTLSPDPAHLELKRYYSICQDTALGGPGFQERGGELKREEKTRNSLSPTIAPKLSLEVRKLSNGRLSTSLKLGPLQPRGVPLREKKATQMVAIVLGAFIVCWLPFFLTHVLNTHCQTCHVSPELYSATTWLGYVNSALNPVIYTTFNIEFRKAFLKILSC
Description: Binding affinity to dopamine D3 receptor (unknown origin)

[3] = molecular target: T2, 5-hydroxytryptamine receptor 2C (Homo sapiens, UniProt P28335)
T2 sequence (P28335 whole entry): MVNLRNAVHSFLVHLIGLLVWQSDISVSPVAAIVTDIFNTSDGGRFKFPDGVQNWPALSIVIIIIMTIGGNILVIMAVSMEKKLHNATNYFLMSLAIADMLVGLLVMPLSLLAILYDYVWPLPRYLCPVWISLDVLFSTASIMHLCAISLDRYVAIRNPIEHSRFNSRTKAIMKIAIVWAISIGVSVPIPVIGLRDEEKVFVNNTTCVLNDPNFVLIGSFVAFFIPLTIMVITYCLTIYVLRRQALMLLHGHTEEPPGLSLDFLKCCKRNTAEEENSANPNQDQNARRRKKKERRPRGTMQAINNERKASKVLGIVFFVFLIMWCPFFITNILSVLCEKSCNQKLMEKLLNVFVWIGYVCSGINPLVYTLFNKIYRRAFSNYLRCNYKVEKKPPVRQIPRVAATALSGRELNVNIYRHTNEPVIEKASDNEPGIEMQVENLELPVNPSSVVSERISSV
Description: Binding affinity to 5HT2C receptor (unknown origin)

Mus musculus [4] = species on record: Mus musculus; conditions: in vivo, sc, 0.5 h
Description: Effect on spontaneous exploratory locomotor activity in sc dosed NMRI mouse measured for 30 mins with activity counts each 5 mins

Mus musculus [5] = species on record: Mus musculus; experiment: animal or person; conditions: NMRI, sc, read-out: MED
Description: Antipsychotic-like activity in sc dosed NMRI mouse assessed as reduction in methamphetamine-induced locomotor activity dosed 15 to 30 mins before administration of methamphetamine measured for 60 mins

D(2) dopamine receptor = D(2) dopamine receptor (Homo sapiens, UniProt P14416)
Sequence of D(2) dopamine receptor (P14416 whole entry): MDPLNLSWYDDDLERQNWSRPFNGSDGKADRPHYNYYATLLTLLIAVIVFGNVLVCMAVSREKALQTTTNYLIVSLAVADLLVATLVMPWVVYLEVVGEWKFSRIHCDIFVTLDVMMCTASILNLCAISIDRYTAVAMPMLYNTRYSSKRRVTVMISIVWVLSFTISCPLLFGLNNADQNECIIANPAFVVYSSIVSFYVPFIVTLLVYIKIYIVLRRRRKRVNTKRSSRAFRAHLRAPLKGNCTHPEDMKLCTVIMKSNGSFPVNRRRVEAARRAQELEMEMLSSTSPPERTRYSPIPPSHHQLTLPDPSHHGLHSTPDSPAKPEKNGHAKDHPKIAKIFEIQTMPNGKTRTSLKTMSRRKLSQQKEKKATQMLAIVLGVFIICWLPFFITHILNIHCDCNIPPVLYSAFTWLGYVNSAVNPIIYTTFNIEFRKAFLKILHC
Description: Binding affinity to dopamine D2 receptor (unknown origin)

Mus musculus [6] = experiment: Antipsychotic-like activity in sc dosed NMRI mouse assessed as reduction in MK801-induced locomotor activity dosed 15 to 30 mins before administration of MK801 measured for 60 mins; type: functional; conditions: read-out: MED
[7] = molecular target: 5-hydroxytryptamine receptor 2A (Homo sapiens, UniProt P28223)
Sequence of 5-hydroxytryptamine receptor 2A (P28223 whole entry): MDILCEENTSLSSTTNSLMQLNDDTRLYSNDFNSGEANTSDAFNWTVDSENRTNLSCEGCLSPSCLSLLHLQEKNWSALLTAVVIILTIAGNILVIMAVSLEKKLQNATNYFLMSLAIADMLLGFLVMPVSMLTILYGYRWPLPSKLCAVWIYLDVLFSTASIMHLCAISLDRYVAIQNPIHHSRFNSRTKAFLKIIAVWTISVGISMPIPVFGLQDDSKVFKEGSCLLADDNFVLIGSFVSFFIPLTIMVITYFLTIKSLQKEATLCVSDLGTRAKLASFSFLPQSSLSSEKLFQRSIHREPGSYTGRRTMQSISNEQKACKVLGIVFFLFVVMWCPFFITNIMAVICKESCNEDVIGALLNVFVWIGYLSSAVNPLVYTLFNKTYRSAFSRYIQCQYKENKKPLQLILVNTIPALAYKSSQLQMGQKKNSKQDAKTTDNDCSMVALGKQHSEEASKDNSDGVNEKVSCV
Description: Binding affinity to 5HT2A receptor (unknown origin)

Mus musculus [8] = species on record: Mus musculus; experiment: animal or person; conditions: NMRI, sc, read-out: MED; remark: listed apart in the source
Description: Antipsychotic-like activity in sc dosed NMRI mouse assessed as reduction in PCP-induced locomotor activity dosed 15 to 30 mins before administration of methamphetamine measured for 60 mins

[9] = molecular target: T3, 5-hydroxytryptamine receptor 1A (Homo sapiens, UniProt P08908)
T3 sequence (P08908 whole entry): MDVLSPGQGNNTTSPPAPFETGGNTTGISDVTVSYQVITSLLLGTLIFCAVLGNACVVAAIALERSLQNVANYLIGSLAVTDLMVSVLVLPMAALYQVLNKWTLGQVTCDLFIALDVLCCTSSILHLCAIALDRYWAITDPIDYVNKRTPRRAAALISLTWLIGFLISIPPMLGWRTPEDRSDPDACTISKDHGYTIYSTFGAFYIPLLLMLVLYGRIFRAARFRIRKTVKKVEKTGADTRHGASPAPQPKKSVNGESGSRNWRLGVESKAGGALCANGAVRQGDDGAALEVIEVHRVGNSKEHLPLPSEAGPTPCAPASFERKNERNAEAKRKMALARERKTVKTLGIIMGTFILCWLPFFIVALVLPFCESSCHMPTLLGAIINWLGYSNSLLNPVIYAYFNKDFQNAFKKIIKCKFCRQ
Description: Binding affinity to 5HT1A receptor (unknown origin)

Mus musculus [10] = experiment: Toxicity in NMRI mouse assessed as induction of tremors at 30 mg/kg, sc dosed 30 mins before test; type: organism-based; design: dose 30 mg/kg, route subcutaneous; conditions: in vivo, 0.5 h
Mus musculus [11] = experiment: Antipsychotic-like activity in orally dosed NMRI mouse assessed as reduction in MK801-induced locomotor activity dosed 15 to 30 mins before administration of MK801 measured for 60 mins; type: functional; conditions: po, read-out: MED
Mus musculus [12] = experiment: Effect on spontaneous exploratory locomotor activity in orally dosed NMRI mouse measured for 30 mins with activity counts each 5 mins; type: ADME, organism-based; conditions: in vivo, po, 0.5 h
D(3) dopamine receptor [13] = molecular target: T1, D(3) dopamine receptor; experiment: Agonist activity at human dopamine D3 receptor expressed in CHO-K1 cells by [35S]GTPgammaS binding assay relative to dopamine; type: functional, cell-based
Rattus norvegicus [14] = experiment: Induction of c-Fos in rat dorsolateral striatum region at 30 mg/kg, ip; type: functional, organism-based; design: dose 30 mg/kg
Rattus norvegicus [15] = experiment: Increase in dopamine release in Wistar rat medial prefrontal cortex at 10 mg/kg, sc measured for 90 mins administered as single dose by microdialysis method; type: functional, organism-based; design: dose 10 mg/kg
D(3) dopamine receptor [16] = molecular target: T1, D(3) dopamine receptor; experiment: Antagonist activity at human dopamine D3 receptor expressed in CHO-K1 cells assessed as reduction in dopamine-induced response by [35S]GTPgammaS binding assay relative to control; type: functional, cell-based; conditions: concentration not given here
Rattus norvegicus [17] = experiment: Induction of c-Fos in rat nucleus accumbens core region at 10 mg/kg, ip; type: functional, organism-based; design: dose 10 mg/kg
Rattus norvegicus [18] = experiment: Increase in heart rate in anaesthetized rat at 10 mg/kg, iv; type: functional, organism-based; design: dose 10 mg/kg
[19] = molecular target: 5-hydroxytryptamine receptor 2A (Rattus norvegicus) (UniProt P14842); experiment: Antagonist activity at 5HT2A receptor in rat aortic rings assessed as reduction in 5-HT-induced contraction relative to control; conditions: concentration not given here
Sequence of 5-hydroxytryptamine receptor 2A (Rattus norvegicus) (P14842 whole entry): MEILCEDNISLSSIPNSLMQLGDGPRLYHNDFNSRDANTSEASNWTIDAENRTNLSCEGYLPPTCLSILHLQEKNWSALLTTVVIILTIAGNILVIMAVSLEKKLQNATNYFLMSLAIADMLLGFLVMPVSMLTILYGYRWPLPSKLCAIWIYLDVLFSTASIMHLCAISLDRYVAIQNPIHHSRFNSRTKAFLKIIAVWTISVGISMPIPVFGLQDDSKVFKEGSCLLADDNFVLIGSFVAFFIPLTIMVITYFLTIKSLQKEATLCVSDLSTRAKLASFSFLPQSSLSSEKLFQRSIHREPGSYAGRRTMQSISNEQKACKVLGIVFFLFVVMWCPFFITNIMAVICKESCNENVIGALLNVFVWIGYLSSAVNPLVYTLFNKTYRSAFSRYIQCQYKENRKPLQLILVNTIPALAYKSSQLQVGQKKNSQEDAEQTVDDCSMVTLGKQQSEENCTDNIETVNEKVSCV

Mus musculus [20] = experiment: Anti-psychotic activity in mouse assessed as amelioration of PCP-induced disruption of prepulse inhibition at 30 mg/kg, po; type: functional, organism-based; design: dose 30 mg/kg
Mus musculus [21] = experiment: Increase in prepulse inhibition in mouse at 30 mg/kg, po dosed 30 mins before testing; type: functional, organism-based; design: dose 30 mg/kg
[22] = molecular target: T4, 5-hydroxytryptamine receptor 1A (Homo sapiens) (UniProt P08908); experiment: Antagonist activity at human 5HT1A receptor (unknown origin) expressed in CHO cells reduction in 5-HT-induced response by [35S]GTPgammaS binding assay; type: functional, cell-based; conditions: concentration not given here
T4 sequence (whole entry): T3 sequence (P08908 whole entry)

Mus musculus [23] = experiment: Anti-psychotic activity in mouse assessed as amelioration of PCP-induced disruption of prepulse inhibition at 3 mg/kg, po; type: functional, organism-based; design: dose 3 mg/kg
Rattus norvegicus [24] = experiment: Increase in dopamine release in Wistar rat nucleus accumbens at 10 mg/kg, sc measured during 0 to 90 mins administered as single dose by microdialysis method; type: functional, organism-based; design: dose 10 mg/kg
Rattus norvegicus [25] = experiment: Induction of c-Fos in ip dosed rat nucleus accumbens; type: functional, organism-based
Rattus norvegicus [26] = experiment: Induction of c-Fos in rat nucleus accumbens core region at 30 mg/kg, ip; type: functional, organism-based; design: dose 30 mg/kg
Mus musculus [27] = experiment: Anxiolytic activity in orally dosed mouse dosed 30 mins before test by marble burying method; type: functional, organism-based
[28] = molecular target: T4, 5-hydroxytryptamine receptor 1A (Homo sapiens); experiment: Agonist activity at human 5HT1A receptor (unknown origin) expressed in CHO cells by [35S]GTPgammaS binding assay relative to 5-HT; type: functional, cell-based
Rattus norvegicus [29] = experiment: Induction of c-Fos in rat nucleus accumbens shell region at 3 to 30 mg/kg, ip; type: functional, organism-based
Rattus norvegicus [30] = experiment: Reduction in blood pressure in anaesthetized rat at 10 mg/kg, iv; type: functional, organism-based; design: dose 10 mg/kg
Mus musculus [31] = experiment: Toxicity in NMRI mouse assessed as induction of sedation at 10 and 30 mg/kg, sc dosed 30 mins before test; type: organism-based; design: dose 30 mg/kg, route subcutaneous; conditions: in vivo, 0.5 h
Mus musculus [32] = experiment: Toxicity in NMRI mouse assessed as induction of catalepsy at 30 mg/kg, sc dosed 30 mins before test; type: organism-based; design: dose 30 mg/kg, route subcutaneous; conditions: in vivo, 0.5 h

| SMILES | pKi (D(3) dopamine receptor [2]) | pKi [3] | MED (Mus musculus [4]) | minimal effective dose (Mus musculus [5]) | pKi (D(2) dopamine receptor) | minimal effective dose (Mus musculus [6]) | pKi [7] | minimal effective dose (Mus musculus [8]) | pKi [9] | further results |
| --- | --- | --- | --- | --- | --- | --- | --- | --- | --- | --- |
| O=C(NCCCCN1CCN(c2ccccc2)CC1)c1cc2ccccc2o1 | 8.40 | < 6.00 | <= 0.3 mg kg-1 | ≤ 1 mg/kg | < 6.00 | 3 mg/kg | 6.41 | ≤ 0.3 mg/kg | 7.52 | Activity (Mus musculus [1]): Toxic |
| Cc1cccc(N2CCN(CCCCNC(=O)c3ccc4ccccc4n3)CC2)c1 | 7.28 | 7.13 | 10 mg/kg | ≤ 1 mg/kg | < 6.00 | 10 mg/kg | 7.77 | > 10 mg/kg | 7.74 | Activity (Mus musculus [10]): Toxic |
| COc1cccc(N2CCN(CCCCNC(=O)c3ccccc3)CC2)n1 | 7.26 | < 6.00 | 10 mg/kg | 0.3 mg/kg | < 6.00 | 3 mg/kg | 6.96 | 10 mg/kg | 8.22 | – |
| O=C(NCCCCN1CCN(c2ccc(F)cc2)CC1)c1cc2ccccc2cn1 | 7.80 | 6.52 | – | – | < 6.00 | – | 8.10 | – | 7.14 | minimal effective dose (Mus musculus [11]): 60 mg/kg; MED (Mus musculus [12]): 60 mg/kg |
| Cc1cccc(N2CCN(CCCCNC(=O)c3cc4ccccc4o3)CC2)c1C | 9.40 | 7.77 | – | – | 7.07 | 30 mg/kg | 8.44 | – | 8.40 | Activity (Mus musculus [10]): Toxic |
| O=C(NCCCCN1CCN(c2ccccc2)CC1)c1ccc2ncccc2c1 | – | – | – | – | – | – | – | – | – | Activity (D(3) dopamine receptor [13]): 21%; Activity (Rattus norvegicus [14]): Active; Activity (Rattus norvegicus [15]): Active; inhibition (D(3) dopamine receptor [16]): 69%; Activity (Rattus norvegicus [17]): inactive; Activity (Rattus norvegicus [18]): Active; inhibition [19]: 94%; Activity (Mus musculus [20]): inactive; Activity (Mus musculus [21]): Active; inhibition [22]: 19%; Activity (Mus musculus [23]): Active; Activity (Rattus norvegicus [24]): inactive; Activity (Rattus norvegicus [25]): Dose-dependent effect; Activity (Rattus norvegicus [26]): Active; Activity (Mus musculus [27]): Dose-dependent effect; Activity [28]: 66%; Activity (Rattus norvegicus [29]): Active; Activity (Rattus norvegicus [30]): Active |
| COc1cccc(N2CCN(CCCCNC(=O)c3cc4ccccc4cn3)CC2)c1 | 8.03 | 6.72 | 10 mg/kg | ≤ 1 mg/kg | < 6.00 | 10 mg/kg | 7.48 | 10 mg/kg | 8.10 | Activity (Mus musculus [31]): Toxic |
| Cc1cccc(N2CCN(CCCCNC(=O)c3cc4ccccc4cn3)CC2)c1 | 8.30 | 6.77 | <= 3 mg kg-1 | ≤ 3 mg/kg | 6.54 | 3 mg/kg | 7.82 | – | 8.10 | Activity (Mus musculus [32]): Non-toxic |
| O=C(NCCCCN1CCN(c2ccccc2)CC1)c1cc2ccccc2cn1 | 7.92 | < 6.00 | 10 mg/kg | ≤ 1 mg/kg | < 6.00 | 3 mg/kg | 7.40 | 3 mg/kg | 7.59 | – |
